In patent publication US20250041284A1, “TREATMENT OF NEUROLOGICAL DISORDERS” (Praxis Precision Medicines, Inc., priority 2022, published 2025):
Entries after “also recorded” stand apart in the source; their conditions may differ.

Columns and labels:
[1] = system: various NaV isoforms and orthologs; assay: ATX-II induced persistent INa at NaV isoforms and orthologs; type: cell-based; settings: in words, FIG. 8C
[2] = system: MES-induced seizures in male CD-1 mice; assay: Maximal electroshock (MES) induced seizure, latency (Example 3); type: in vivo, mouse
Description: (§1) Food and water were available ad libitum.
Dosing solutions were prepared on each experiment day. […] VPA was prepared in saline (Vehicle 1). All solutions were protected from light. All compounds and vehicles were dosed at 10 ml/kg.
The MES test was carried out over two days with half of the mice from each treatment group being tested on each day. Mice were brought to the test room at least one hour before the start of the experiment. […] Mice were randomly assigned into one of the six treatment groups.
Animals were p.o. (oral) administered Compound 1 or 35% HPBCD (Vehicle 2) 30 minutes prior to the MES test or i.p. administered VPA or saline (Vehicle 1) 30 minutes prior to the MES test.
A Grass S88x (Grass Technologies of Astro-Med, Inc., West Warwick, RI) Stimulus Isolation Unit (A385, WPI Inc., USA) was set to deliver a 50 mA square-wave stimulus, with a 0.8 second duration, a pulse width of 10 msec, and a frequency of 50 Hz. A pair of custom stainless steel electrodes were soaked in 0.2% Agar, and then the subject received bilateral transauricular stimulation through ear-clip electrodes. During the stimulation, mice were manually restrained. They were then released into the observation cage for convulsion observation for 60 seconds immediately after stimulation. Each mouse was observed continuously by individuals blinded to treatment conditions and results were recorded.
Anti-seizure assessment endpoints were: (1) latency of hindlimb tonic flexion; (2) latency of hindlimb tonic extension; (3) total #hindlimb tonic flexions; (4) total #hindlimb tonic extensions; (5) latency to death; and (6) mortality rate.
Following the experiment, mice were anesthetized with CO2 and terminal plasma and brain tissue samples were collected. […] The supernatant plasma was pipetted into Eppendorf tubes.
An aliquot of 20 μL unknown sample, calibration standard, quality control, dilute quality control, single blank and double blank sample was added to a 1.5 mL tube. […]
From these fitted curves, ED50 and EC50 values were calculated.

[3] = Spontaneous locomotor activity (sLMA) (Example 4); type: in vivo, mouse; settings: male, CD-1, mouse, in vivo, po, 30 min post-dose, 30-minute test
Description: as §1
(§2) Dosing solutions were prepared on each experiment day. […] All solutions were protected from light. Samples from dosing solutions were stored at 4° C.
(§3) The sLMA test was carried out over two days. Half of the mice from each treatment group was tested on each day.
(§4) Animals were p.o. administered Compound 1 or 35% HPBCD (vehicle) 30 minutes prior to the sLMA test.
(§5) All mice were anesthetized with CO2. […] The supernatant plasma was pipetted into Eppendorf tubes.
(§6) An aliquot of 20 μL unknown sample, calibration standard, quality control, dilute quality control, single blank and double blank sample was added to a 1.5 mL tube. Each sample (except the double blank) was quenched with 300 μL IS solution (double blank sample was quenched with 300 μL ACN), and then the mixture was vortex-mixed well for at least 15 seconds and centrifuged for 15 minutes at 12000 g, 4° C. 65 μL supernatant was transferred to a 96-well plate and centrifuged for 5 minutes at 3220 g, 4° C. Then 3 μL supernatant was directly injected for LC-MS/MS analysis.
(§7) Brain homogenate was prepared by homogenizing brain tissue with 5 volumes (w:v) of cold 15 mM PBS/MeOH (V:V, 2:1). An aliquot of 40 μL unknown sample, calibration standard, quality control, dilute quality control, single blank and double blank sample was added to a 1.5 mL tube. Each sample (except the double blank) was quenched with 600 μL IS solution (double blank sample was quenched with 600 μL ACN), and then the mixture was vortex-mixed well for at least 15 seconds and centrifuged for 15 minutes at 12000 g, 4° C. 65 μL supernatant was transferred to a 96-well plate and centrifuged for 5 minutes at 3220 g, 4° C. Then 3 μL of the supernatant was directly injected for LC-MS/MS analysis.

[4] = system: spontaneous locomotor activity in male CD-1 mice; assay: Spontaneous locomotor activity (sLMA) (Example 4); type: in vivo, mouse
Description: as §1, §2, §3, §4, §5, §6, §7

CCOC(F)(F)c1nnc2ccc(-c3cnc(OCC(F)(F)F)c(F)c3)cn12 [Compound 1]
inhibition of ATX-II induced persistent INa at multiple NaV isoforms and orthologs [1]: inhibits ATX-II induced persistent INa expressed by multiple NaV isoforms and orthologs
latency to seizures following bilateral transauricular stimulation ([2]; 1 mg/kg p.o.): significantly increased latency to seizures
block of evoked seizures (MES) ([2]; 10 mg/kg): completely blocked evoked seizures
ED50 ([2]; Mus musculus, po, 30 min before MES, latency to seizures): 0.67 mg/kg
TD50 [3]: 10.3 mg/kg
total traveling distance in the 30-minute sLMA test ([4]; 10 and 20 mg/kg p.o.): significantly reduced total traveling distance; also recorded: significantly reduced locomotor activity
sLMA TD50 ([4]; p.o., 30 min post-dose, 30-minute test): 10.27 mg/kg
sLMA plasma TC50 ([4]; plasma concentration): 1123 ng/g
